Tested on: human TH17 cells
Test: Inhibition of IL-17 release from human TH17 cells
Assay type: cell-based
Conditions: Homo sapiens, 96 h, isolated human TH17 cells, 4 days culture, IL-17A by HTRF; read-out: pIC50 IL-17 release (converted)
Description: Inhibition of IL-17 Release from Human TH17 Cells (IL-17 Release)
This test is designed to screen compounds for their inhibitory effect on the release of IL-17 from isolated and cultured human TH17 cells.
Peripheral blood mononuclear cells (PBMC) were isolated from heparin treated human whole blood fromhealthy donors by density gradient centrifugation. TH17 cells (CD4+CXCR3-CCR6+) were enriched using a human TH17 Cell Enrichment Kit (Stemcell Technologies) according to the manufacturer's protocol. […] On day 4 supernatants were collected and IL-17A was measured using a Human IL-17 HTRF Assay kit (Cisbio Bioassays) according to the manufacturer's protocol. […] Results

Compound | IC50
CCS(=O)(=O)c1ccc2c(c1)CN(C(=O)C1(C#N)CC1)C2C(=O)Nc1ccc(C(O)(C(F)(F)F)C(F)(F)F)cc1 (stereo not drawn) [Example 105, 2-[(1-Cyanocyclopropyl)carbonyl]-5-(ethylsulfonyl)-N-[4-(1,1,1,3,3,3-hexafluoro-2-hydroxypropan-2-yl)phenyl]-2,3-dihydro-1H-isoindole-1-carboxamide] | 20 nM
CCS(=O)(=O)c1ccc2c(c1)CN(C(=O)CC(C)(C)O)C2C(=O)Nc1ccc(C(O)(C(F)(F)F)C(F)(F)F)cc1 (stereo not drawn) [Example 106, 5-(Ethylsulfonyl)-N-[4-(1,1,1,3,3,3-hexafluoro-2-hydroxypropan-2-yl)phenyl]-2-(3-hydroxy-3-methylbutanoyl)-2,3-dihydro-1H-isoindole-1-carboxamide] | 63.1 nM
CCS(=O)(=O)c1ccc2c(c1)CN(C(=O)CC1(O)CC1)C2C(=O)Nc1ccc(C(O)(C(F)(F)F)C(F)(F)F)cc1 (stereo not drawn) [Example 107, 5-(Ethylsulfonyl)-N-[4-(1,1,1,3,3,3-hexafluoro-2-hydroxypropan-2-yl)phenyl]-2-[(1-hydroxycyclopropyl)acetyl]-2,3-dihydro-1H-isoindole-1-carboxamide] | 50.1 nM
CCS(=O)(=O)c1ccc2c(c1)CN(C(=O)CC1CCC1)C2C(=O)Nc1ccc(C(O)(C(F)(F)F)C(F)(F)F)cc1 (stereo not drawn) [Example 109, 2-(Cyclobutylacetyl)-5-(ethylsulfonyl)-N-[4-(1,1,1,3,3,3-hexafluoro-2-hydroxypropan-2-yl)phenyl]-2,3-dihydro-1H-isoindole-1-carboxamide] | 20 nM
CCS(=O)(=O)c1ccc2c(c1)CN(C(=O)CC1(OC)CC1)C2C(=O)Nc1ccc(C(O)(C(F)(F)F)C(F)(F)F)cc1 (stereo not drawn) [Example 112, 5-(Ethylsulfonyl)-N-[4-(1,1,1,3,3,3-hexafluoro-2-hydroxypropan-2-yl)phenyl]-2-[(1-methoxycyclopropyl)acetyl]-2,3-dihydro-1H-isoindole-1-carboxamide] | 31.6 nM
CCS(=O)(=O)c1ccc2c(c1)CN(C(=O)C1CCOC1)C2C(=O)Nc1ccc(C(O)(C(F)(F)F)C(F)(F)F)cc1 (stereo not drawn) [Example 113, 5-(Ethylsulfonyl)-N-[4-(1,1,1,3,3,3-hexafluoro-2-hydroxypropan-2-yl)phenyl]-2-(tetrahydrofuran-3-ylcarbonyl)-2,3-dihydro-1H-isoindole-1-carboxamide] | 79.4 nM
CCS(=O)(=O)c1ccc2c(c1)CN(C(=O)C1CCCO1)C2C(=O)Nc1ccc(C(O)(C(F)(F)F)C(F)(F)F)cc1 (stereo not drawn) [Example 114, 5-(Ethylsulfonyl)-N-[4-(1,1,1,3,3,3-hexafluoro-2-hydroxypropan-2-yl)phenyl]-2-(tetrahydrofuran-2-ylcarbonyl)-2,3-dihydro-1H-isoindole-1-carboxamide] | 31.6 nM
CCS(=O)(=O)c1ccc2c(c1)CN(C(=O)CC1(N(C)C)CC1)C2C(=O)Nc1ccc(C(O)(C(F)(F)F)C(F)(F)F)cc1 (stereo not drawn) [Example 115, 2-{[1-(Dimethylamino)cyclopropyl]acetyl}-5-(ethylsulfonyl)-N-[4-(1,1,1,3,3,3-hexafluoro-2-hydroxypropan-2-yl)phenyl]-2,3-dihydro-1H-isoindole-1-carboxamide] | 63.1 nM
CCS(=O)(=O)c1ccc2c(c1)CN(C(=O)CC#N)C2C(=O)Nc1ccc(C(O)(C(F)(F)F)C(F)(F)F)cc1 (stereo not drawn) [Example 116, 2-(Cyanoacetyl)-5-(ethylsulfonyl)-N-[4-(1,1,1,3,3,3-hexafluoro-2-hydroxypropan-2-yl)phenyl]-2,3-dihydro-1H-isoindole-1-carboxamide] | 200 nM
CCS(=O)(=O)c1ccc2c(c1)CN(C(=O)C1(CO)CC1)C2C(=O)Nc1ccc(C(O)(C(F)(F)F)C(F)(F)F)cc1 (stereo not drawn) [Example 117, 5-(Ethylsulfonyl)-N-[4-(1,1,1,3,3,3-hexafluoro-2-hydroxypropan-2-yl)phenyl]-2-{[1-(hydroxymethyl)cyclopropyl]carbonyl}-2,3-dihydro-1H-isoindole-1-carboxamide] | 79.4 nM
O=C(Nc1ccc(C(O)(C(F)(F)F)C(F)(F)F)cc1)C1NCc2cc(S(=O)(=O)CC3CC3)ccc21 (stereo not drawn) [Example 200, 5-[(Cyclopropylmethyl)sulfonyl]-N-[4-(1,1,1,3,3,3-hexafluoro-2-hydroxypropan-2-yl)phenyl]-2,3-dihydro-1H-isoindole-1-carboxamide] | 31.6 nM
CCOC(=O)N1Cc2cc(S(=O)(=O)CC3CC3)ccc2C1C(=O)Nc1ccc(C(O)(C(F)(F)F)C(F)(F)F)cc1 (stereo not drawn) [Example 204, Ethyl 5-[(cyclopropylmethyl)sulfonyl]-1-{[4-(1,1,1,3,3,3-hexafluoro-2-hydroxypropan-2-yl)phenyl]carbamoyl}-1,3-dihydro-2H-isoindole-2-carboxylate] | 7.94 nM
COC1(CC(=O)N2Cc3cc(S(=O)(=O)CC4CC4)ccc3C2C(=O)Nc2ccc(C(O)(C(F)(F)F)C(F)(F)F)cc2)CC1 (stereo not drawn) [Example 205, 5-[(Cyclopropylmethyl)sulfonyl]-N-[4-(1,1,1,3,3,3-hexafluoro-2-hydroxypropan-2-yl)phenyl]-2-[(1-methoxycyclopropyl)acetyl]-2,3-dihydro-1H-isoindole-1-carboxamide] | 15.8 nM
O=C(Nc1ccc(C(O)(C(F)(F)F)C(F)(F)F)cc1)C1c2ccc(S(=O)(=O)CC3CC3)cc2CN1C(=O)CC1(O)CC1 (stereo not drawn) [Example 206, 5-[(Cyclopropylmethyl)sulfonyl]-N-[4-(1,1,1,3,3,3-hexafluoro-2-hydroxypropan-2-yl)phenyl]-2-[(1-hydroxycyclopropyl)acetyl]-2,3-dihydro-1H-isoindole-1-carboxamide] | 39.8 nM
CC(C)(O)CC(=O)N1Cc2cc(S(=O)(=O)CC3CC3)ccc2C1C(=O)Nc1ccc(C(O)(C(F)(F)F)C(F)(F)F)cc1 (stereo not drawn) [Example 207, 5-[(Cyclopropylmethyl)sulfonyl]-N-[4-(1,1,1,3,3,3-hexafluoro-2-hydroxypropan-2-yl)phenyl]-2-(3-hydroxy-3-methylbutanoyl)-2,3-dihydro-1H-isoindole-1-carboxamide] | 39.8 nM
O=C(Nc1ccc(C(O)(C(F)(F)F)C(F)(F)F)cc1)C1c2ccc(S(=O)(=O)CC3CC3)cc2CN1C(=O)C1CCCO1 (stereo not drawn) [Example 208, 5-[(Cyclopropylmethyl)sulfonyl]-N-[4-(1,1,1,3,3,3-hexafluoro-2-hydroxypropan-2-yl)phenyl]-2-(tetrahydrofuran-2-ylcarbonyl)-2,3-dihydro-1H-isoindole-1-carboxamide] | 20 nM
N#CC1(C(=O)N2Cc3cc(S(=O)(=O)CC4CC4)ccc3C2C(=O)Nc2ccc(C(O)(C(F)(F)F)C(F)(F)F)cc2)CC1 (stereo not drawn) [Example 209, 2-[(1-Cyanocyclopropyl)carbonyl]-5-[(cyclopropylmethyl)sulfonyl]-N-[4-(1,1,1,3,3,3-hexafluoro-2-hydroxypropan-2-yl)phenyl]-2,3-dihydro-1H-isoindole-1-carboxamide] | 25.1 nM
O=C(Nc1ccc(C(O)(C(F)(F)F)C(F)(F)F)cc1)C1c2ccc(S(=O)(=O)CC3CC3)cc2CN1C(=O)C1CCOC1 (stereo not drawn) [Example 210, 5-[(Cyclopropylmethyl)sulfonyl]-N-[4-(1,1,1,3,3,3-hexafluoro-2-hydroxypropan-2-yl)phenyl]-2-(tetrahydrofuran-3-ylcarbonyl)-2,3-dihydro-1H-isoindole-1-carboxamide] | 25.1 nM

Reference: patent US10988445B2 (AstraZeneca AB, priority 2015, dated 2021)
